Measured values reported in PubChem BioAssay AID248 (DTP/NCI, 2004).
Several values for one entry are separate records, joined by “and”; a condition that tells them apart may be missing. Equal values may be shown once. Inconclusive results and toxic doses are left out. No stated cut-off is given here; in the data, active means T/C of 150% or more; inactive means T/C below 125%.

Test system: L1210 leukemia ip in BDF1 mice, survival T/C
Assay: NCI In Vivo Anticancer Drug Screen. Data for tumor model L1210 Leukemia (intraperitoneal) in B6D2F1 (BDF1) mice
Conditions: endpoint: mean survival time, higher = longer survival
Summary of the method: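 Transplantable tumor model; survival measured in treated vs vehicle control mice. Value = treated/control.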

[1] = dose: 400.0 mg/kg/injection, schedule: Q04DX003 (ip), vehicle: saline with Tween-80
[2] = dose: 100.0 mg/kg/injection, schedule: Q04DX002 (ip), vehicle: Klucel (hydroxypropylcellulose) (HPC)
[3] = dose: 200.0 mg/kg/injection, schedule: Q04DX002 (ip), vehicle: Klucel (hydroxypropylcellulose) (HPC)
[4] = dose: 400.0 mg/kg/injection, schedule: Q04DX002 (ip), vehicle: Klucel (hydroxypropylcellulose) (HPC)
[5] = dose: 100.0 mg/kg/injection, schedule: Q01DX001 (ip), vehicle: saline
[6] = dose: 200.0 mg/kg/injection, schedule: Q01DX001 (ip), vehicle: saline
[7] = dose: 400.0 mg/kg/injection, schedule: Q01DX001 (ip), vehicle: saline
[8] = dose: 25.0 mg/kg/injection, schedule: Q01DX009 (ip), vehicle: saline
[9] = dose: 50.0 mg/kg/injection, schedule: Q01DX009 (ip), vehicle: saline
[10] = dose: 100.0 mg/kg/injection, schedule: Q01DX009 (ip), vehicle: Klucel (hydroxypropylcellulose) (HPC)
[11] = dose: 200.0 mg/kg/injection, schedule: Q01DX009 (ip), vehicle: Klucel (hydroxypropylcellulose) (HPC)
[12] = dose: 100.0 mg/kg/injection, schedule: Q01DX009 (ip), vehicle: saline with Tween-80
[13] = dose: 200.0 mg/kg/injection, schedule: Q01DX009 (ip), vehicle: saline with Tween-80
[14] = dose: 100.0 mg/kg/injection, schedule: Q04DX003 (ip), vehicle: Klucel (hydroxypropylcellulose) (HPC)
[15] = dose: 200.0 mg/kg/injection, schedule: Q04DX003 (ip), vehicle: Klucel (hydroxypropylcellulose) (HPC)
[16] = dose: 400.0 mg/kg/injection, schedule: Q04DX003 (ip), vehicle: Klucel (hydroxypropylcellulose) (HPC)
[17] = dose: 100.0 mg/kg/injection, schedule: Q01DX009 (ip), vehicle: saline
[18] = dose: 100.0 mg/kg/injection, schedule: Q04DX003 (ip), vehicle: saline
[19] = dose: 100.0 mg/kg/injection, schedule: Q01DX001 (ip), vehicle: Klucel (hydroxypropylcellulose) (HPC)
[20] = dose: 200.0 mg/kg/injection, schedule: Q01DX001 (ip), vehicle: Klucel (hydroxypropylcellulose) (HPC)
[21] = dose: 400.0 mg/kg/injection, schedule: Q01DX001 (ip), vehicle: Klucel (hydroxypropylcellulose) (HPC)
[22] = dose: 400.0 mg/kg/injection, schedule: Q01DX009 (ip), vehicle: saline
[23] = dose: 400.0 mg/kg/injection, schedule: Q01DX009 (ip), vehicle: Klucel (hydroxypropylcellulose) (HPC)

Measured: T/C

COc1cc(\C=N/N=C/C=C/c2ccccc2)cc(OC)c1OC
inactive: dose: 50.0 mg/kg/injection, schedule: Q04DX003 (ip), vehicle: saline with Tween-80 95 % of control | dose: 100.0 mg/kg/injection, schedule: Q04DX002 (ip), vehicle: saline with Tween-80 87 % of control and 90 % of control | dose: 200.0 mg/kg/injection, schedule: Q04DX002 (ip), vehicle: saline with Tween-80 104 % of control and 113 % of control | dose: 400.0 mg/kg/injection, schedule: Q04DX002 (ip), vehicle: saline with Tween-80 102 % of control and 103 % of control | [1] 93 % of control and 88 % of control

ClCCN(CCCl)c1ccc(C=Nc2cc(Cl)ccc2-n2ccnc2)c(Cl)c1
inactive: [2] 98 % of control | [3] 95 % of control | [4] 98 % of control

CC(=O)OCC1OC(N2C(=O)/C(=C/c3c(Cl)cccc3Cl)SC2=S)C(OC(C)=O)C(OC(C)=O)C1OC(C)=O (stereo unspecified)
inactive: dose: 25.0 mg/kg/injection, schedule: Q01DX005 (ip), vehicle: other 103 % of control | dose: 50.0 mg/kg/injection, schedule: Q01DX005 (ip), vehicle: other 101 % of control | dose: 100.0 mg/kg/injection, schedule: Q01DX005 (ip), vehicle: other 104 % of control | dose: 200.0 mg/kg/injection, schedule: Q01DX005 (ip), vehicle: other 93 % of control

CC(=O)Nc1ccc(N=C/C=C/c2ccccc2)cc1
inactive: [5] 93 % of control | [6] 94 % of control | [7] 98 % of control

COc1ccc(NC(=O)Oc2ccccc2-c2ccccc2)cc1
inactive: dose: 100.0 mg/kg/injection, schedule: Q04DX003 (ip), vehicle: saline with Tween-80 91 % of control | dose: 200.0 mg/kg/injection, schedule: Q04DX003 (ip), vehicle: saline with Tween-80 91 % of control | [1] 86 % of control

CCN(CC)Cc1cc(Nc2cc(C)nc3ccc(N(C)C)cc23)ccc1O
inactive: dose: 12.5 mg/kg/injection, schedule: Q01DX009 (ip), vehicle: saline 104 % of control | [8] 98 % of control | [9] 100 % of control

CSc1nc(N)nc(N)n1
inactive: dose: 25.0 mg/kg/injection, schedule: Q01DX009 (ip), vehicle: Klucel (hydroxypropylcellulose) (HPC) 97 % of control | dose: 50.0 mg/kg/injection, schedule: Q01DX009 (ip), vehicle: Klucel (hydroxypropylcellulose) (HPC) 100 % of control | [10] 93 % of control and 90 % of control | [11] 98 % of control

c1cc[c]([Sn]([c]2ccccc2)([c]2ccccc2)[c]2ccccc2)cc1
inactive: dose: 50.0 mg/kg/injection, schedule: Q01DX009 (ip), vehicle: saline with Tween-80 95 % of control | [12] 90 % of control | [13] 100 % of control

CN(C)c1ccc(/C=N/NC(=O)Cc2cccc3ccccc23)cc1
inactive: [12] 90 % of control | [13] 86 % of control | dose: 400.0 mg/kg/injection, schedule: Q01DX009 (ip), vehicle: saline with Tween-80 86 % of control

O=C(O)c1ccc(F)c(F)c1F
inactive: dose: 100.0 mg/kg/injection, schedule: Q04DX002 (ip), vehicle: other 121 % of control | dose: 200.0 mg/kg/injection, schedule: Q04DX002 (ip), vehicle: other 115 % of control

O=c1[nH]c2cscc2c(=O)n1O
inactive: [14] 103 % of control | [15] 97 % of control | [16] 107 % of control

O=C(O)/C=C/C(=O)Nc1ccc2c(c1)Cc1cc(NC(=O)C(F)(F)F)ccc1-2
inactive: [8] 105 % of control | dose: 25.0 mg/kg/injection, schedule: Q04DX003 (ip), vehicle: saline 102 % of control | [9] 101 % of control | dose: 50.0 mg/kg/injection, schedule: Q04DX003 (ip), vehicle: saline 96 % of control | [5] 90 % of control | [17] 100 % of control | [18] 98 % of control | [6] 90 % of control

CCC(C)(CCC(C)C)c1ccncc1 (stereo unspecified)
inactive: [5] 106 % of control | [6] 98 % of control

c1ccc(Nc2ccc(Nc3ccccc3)cc2)cc1
inactive: [19] 94 % of control | [17] 113 % of control | [18] 86 % of control | [20] 94 % of control | dose: 200.0 mg/kg/injection, schedule: Q01DX009 (ip), vehicle: saline 110 % of control | dose: 200.0 mg/kg/injection, schedule: Q04DX003 (ip), vehicle: saline 93 % of control | [21] 91 % of control | [22] 110 % of control | dose: 400.0 mg/kg/injection, schedule: Q04DX003 (ip), vehicle: saline 95 % of control

Cc1c(Cl)c(Cl)c(C)c(Cl)c1Cl
inactive: [10] 86 % of control | [14] 95 % of control | [11] 89 % of control | [15] 101 % of control | [23] 87 % of control | [16] 93 % of control

CCCCSC(=O)C(O)c1ccccc1 (stereo unspecified)
inactive: [5] 105 % of control | [6] 104 % of control | [7] 105 % of control

O=C=Nc1cccc2c(N=C=O)cccc12
inactive: [12] 91 % of control

Clc1ccccc1CSc1ncnc2nc[nH]c12
inactive: dose: 16.0 mg/kg/injection, schedule: Q01DX Z (ip), vehicle: other 96 % of control | dose: 31.0 mg/kg/injection, schedule: Q01DX Z (ip), vehicle: other 106 % of control | dose: 40.0 mg/kg/injection, schedule: Q01DX009 (ip), vehicle: saline 120 % of control | dose: 62.0 mg/kg/injection, schedule: Q01DX Z (ip), vehicle: other 112 % of control | dose: 70.0 mg/kg/injection, schedule: Q01DX009 (ip), vehicle: saline 110 % of control | dose: 265.0 mg/kg/injection, schedule: Q01DX001 (ip), vehicle: acetone 124 % of control | dose: 265.0 mg/kg/injection, schedule: Q01DX001 (ip), vehicle: saline 107 % of control | dose: 300.0 mg/kg/injection, schedule: Q01DX009 (ip), vehicle: acetone 94 % of control | dose: 300.0 mg/kg/injection, schedule: Q01DX009 (ip), vehicle: saline 123 % of control | dose: 375.0 mg/kg/injection, schedule: Q01DX Z (ip), vehicle: other 103 % of control | [7] 110 % of control | [22] 115 % of control | dose: 450.0 mg/kg/injection, schedule: Q01DX009 (ip), vehicle: acetone 91 % of control | dose: 500.0 mg/kg/injection, schedule: Q01DX Z (ip), vehicle: other 86 % of control
active: dose: 187.0 mg/kg/injection, schedule: Q01DX Z (ip), vehicle: other 150 % of control

OC12CCCCC1C[n+]1ccccc1C2 (stereo unspecified)
inactive: [5] 101 % of control

COc1ccc(-n2cccc2/C=N/O)cc1
inactive: [2] 96 % of control | [3] 100 % of control | [4] 86 % of control

CC(C)=C1C(=O)ON(c2ccccc2)C1=O
inactive: dose: 50.0 mg/kg/injection, schedule: Q01DX001 (ip), vehicle: Klucel (hydroxypropylcellulose) (HPC) 100 % of control | [19] 100 % of control | [14] 105 % of control | [20] 105 % of control | [15] 110 % of control | [21] 104 % of control | [16] 105 % of control

CCc1ccccc1NC(=O)Nc1ccc(C(=O)O)cc1
inactive: [10] 98 % of control | [11] 94 % of control

CCCCCC[n+]1cccc(C(N)=O)c1
inactive: [14] 100 % of control | [15] 94 % of control

FC(F)(F)Cc1cccc(C(F)(F)F)c1
inactive: dose: 100.0 mg/kg/injection, schedule: Q01DX001 (ip), vehicle: saline with Tween-80 113 % of control | dose: 200.0 mg/kg/injection, schedule: Q01DX001 (ip), vehicle: saline with Tween-80 103 % of control | dose: 400.0 mg/kg/injection, schedule: Q01DX001 (ip), vehicle: saline with Tween-80 105 % of control

O=C(Cc1ccccc1)Nc1cccc2ccccc12
inactive: [10] 101 % of control | [11] 95 % of control | [23] 91 % of control
